Measurements: US20240366471A1, “MULTIDOSE ANTIBODY DRUG PRODUCTS USING PHENOL OR BENZYL ALCOHOL” (Regeneron Pharmaceuticals, Inc., priority 2023, published 2024)
Values belong to the compound of their own block, whether it stands above or below them.

Assays:
[1] = Purity by SE-UPLC (% HMW, % Main, % LMW) on storage; type: physicochemical; settings: stress conditions (40° C. and 45° C.)
Procedure: To determine the effect of preservatives on high molecular weight (HMW) complex formation for different mAbs formulations, various antibodies were incubated at 40° C. over the course of 3 months with or without tested preservatives.
To determine the effect of preservatives on high molecular weight (HMW) complex formation for different mAbs formulations, various antibodies were incubated at 25° C. over the course of 6 months with or without tested preservatives.

[2] = Compatibility of preservatives with mAb formulations; type: physicochemical; settings: preservative in mAb formulations, incompatibility seen as turbidity
[3] = Overall storage stability of mAb formulations with preservatives; settings: all storage conditions
Procedure: Storage stability of the Fc-containing proteins were assessed at various temperatures, as will be described in further detail, including at 5° C., 25° C., 40° C., and 45° C., to enable kinetic degradation profiling, if applicable.
The sample formulations with preservatives were compared to the control formulations without preservatives to evaluate the effect of preservatives on protein stability.

mAb aggregation detected by SE-UPLC (in words) [1]: higher mAb aggregation
SMILES: OCc1ccccc1 [benzyl alcohol]

SMILES: Cc1cccc(O)c1 [m-cresol]
compatibility with the mAb formulations [2]: not compatible
compatibility with the mAb formulations ([2]; listed as cresol): incompatible

SMILES: Oc1ccccc1 [phenol]
destabilizing effect of preservative on mAbs (in words) [3]: least destabilization effect
destabilizing effect of preservative on mAbs (in words) ([3]; listed as Phenol): only minimal destabilizing effect
